This is an account of results in ChEMBL document CHEMBL3098052, “Chemical synthesis and tyrosinase inhibitory activity of rhododendrol glycosides” (Bioorg Med Chem Lett, 2014).

Structures are written as SMILES.

The first test deals with T1, Tyrosinase (Agaricus bisporus, UniProt O42713).
T1 sequence (O42713 whole entry): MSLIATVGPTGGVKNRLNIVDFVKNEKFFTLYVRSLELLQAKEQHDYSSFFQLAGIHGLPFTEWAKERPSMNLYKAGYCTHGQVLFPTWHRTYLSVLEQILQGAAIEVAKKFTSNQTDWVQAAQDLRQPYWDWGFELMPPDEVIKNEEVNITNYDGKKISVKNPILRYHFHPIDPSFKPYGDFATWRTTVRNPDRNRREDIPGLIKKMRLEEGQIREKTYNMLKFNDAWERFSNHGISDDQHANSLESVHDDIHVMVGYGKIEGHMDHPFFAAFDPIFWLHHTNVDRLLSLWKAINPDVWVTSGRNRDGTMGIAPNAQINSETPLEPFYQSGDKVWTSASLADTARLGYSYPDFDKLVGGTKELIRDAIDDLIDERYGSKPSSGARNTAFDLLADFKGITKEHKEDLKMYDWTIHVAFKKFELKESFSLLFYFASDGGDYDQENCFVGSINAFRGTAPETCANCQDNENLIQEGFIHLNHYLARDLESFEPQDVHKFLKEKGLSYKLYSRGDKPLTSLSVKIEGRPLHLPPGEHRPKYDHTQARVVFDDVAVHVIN
The experiment in a line: Inhibition of mushroom tyrosinase using L-DOPA as substrate assessed as dopachrome formation after 5 mins by spectrophotometry.
One may read the IC50 as the point on the concentration scale where inhibition reaches its midpoint. For the molecule `C[C@@H](CCc1ccc(O)cc1O)O[C@@H]1O[C@H](CO)[C@@H](O)[C@H](O)[C@H]1O`, the IC50 was 4.72 µM.
On to `C[C@H](CCc1ccc(O)cc1O)O[C@@H]1O[C@H](CO)[C@@H](O)[C@H](O)[C@H]1O`, for which the IC50 stood at 2.3 µM.
On to `C[C@@H](CCc1ccc(O)cc1O)O[C@@H]1O[C@H](CO)[C@@H](O[C@@H]2O[C@H](CO)[C@@H](O)[C@H](O)[C@H]2O)[C@H](O)[C@H]1O`, for which the 50% inhibitory concentration (IC50) worked out at 3.83 µM.
Still for that read-out and setting: the value for `C[C@@H](CCc1ccc(O)cc1O)O[C@@H]1OC[C@@H](O)[C@H](O)[C@H]1O` was 4.56 µM.
Take `C[C@H](CCc1ccc(O)cc1O)O[C@@H]1O[C@H](CO)[C@@H](O[C@@H]2O[C@H](CO)[C@@H](O)[C@H](O)[C@H]2O)[C@H](O)[C@H]1O`: the IC50 came to 1.51 µM.
As for `C[C@H](CCc1ccc(O)cc1O)O[C@@H]1OC[C@@H](O)[C@H](O)[C@H]1O`, the concentration for half-maximal inhibition (IC50) was determined as 1.72 µM.
Take `CCCCCCc1ccc(O)cc1O` [HEXYLRESORCINOL]: the half-maximal inhibitory concentration (IC50) amounted to 0.56 µM.

The target of a further test is T2, Tyrosinase (Agaricus bisporus) (UniProt O42713).
T2 sequence (whole entry): T1 sequence (O42713 whole entry)
Kind of test: Ratio of kojic acid IC50 to compound IC50 for mushroom tyrosinase.
Consider `C[C@H](CCc1ccc(O)cc1O)O[C@@H]1O[C@H](CO)[C@@H](O[C@@H]2O[C@H](CO)[C@@H](O)[C@H](O)[C@H]2O)[C@H](O)[C@H]1O`, for which the Ratio IC50 is 6.
